The values below come from patent US20190284168A1, “PYRAZOLE DERIVATIES AS SGC STIMULATORS” (IRONWOOD PHARMACEUTICALS, INC., priority 2014, published 2019).

SMILES strings stand for the structures. A value given as a limit tells only on which side of the number the result lay.

This assay concerns the target T1, sGC enzyme (Homo sapiens, UniProt Q02108+Q02153).
T1 construct: host or cells: HEK293 cells expressing GloSensor 40F cGMP
T1 sequence (Q02153 1-619): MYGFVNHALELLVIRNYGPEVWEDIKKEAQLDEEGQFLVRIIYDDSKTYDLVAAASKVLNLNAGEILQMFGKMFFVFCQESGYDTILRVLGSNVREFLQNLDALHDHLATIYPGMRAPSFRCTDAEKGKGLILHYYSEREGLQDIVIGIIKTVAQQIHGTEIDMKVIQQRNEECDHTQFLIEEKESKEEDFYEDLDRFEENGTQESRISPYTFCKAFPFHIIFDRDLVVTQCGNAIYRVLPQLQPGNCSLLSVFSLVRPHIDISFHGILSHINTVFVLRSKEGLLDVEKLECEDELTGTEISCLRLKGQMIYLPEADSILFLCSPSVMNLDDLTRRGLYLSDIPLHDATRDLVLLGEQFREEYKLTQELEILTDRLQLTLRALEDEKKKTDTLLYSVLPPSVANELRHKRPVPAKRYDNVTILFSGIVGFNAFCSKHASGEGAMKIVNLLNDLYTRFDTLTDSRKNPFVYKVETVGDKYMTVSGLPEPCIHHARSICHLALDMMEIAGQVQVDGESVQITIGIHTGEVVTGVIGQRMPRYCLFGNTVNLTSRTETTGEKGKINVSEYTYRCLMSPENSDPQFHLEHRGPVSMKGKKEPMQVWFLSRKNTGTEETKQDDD
T1 sequence (Q02108 1-690): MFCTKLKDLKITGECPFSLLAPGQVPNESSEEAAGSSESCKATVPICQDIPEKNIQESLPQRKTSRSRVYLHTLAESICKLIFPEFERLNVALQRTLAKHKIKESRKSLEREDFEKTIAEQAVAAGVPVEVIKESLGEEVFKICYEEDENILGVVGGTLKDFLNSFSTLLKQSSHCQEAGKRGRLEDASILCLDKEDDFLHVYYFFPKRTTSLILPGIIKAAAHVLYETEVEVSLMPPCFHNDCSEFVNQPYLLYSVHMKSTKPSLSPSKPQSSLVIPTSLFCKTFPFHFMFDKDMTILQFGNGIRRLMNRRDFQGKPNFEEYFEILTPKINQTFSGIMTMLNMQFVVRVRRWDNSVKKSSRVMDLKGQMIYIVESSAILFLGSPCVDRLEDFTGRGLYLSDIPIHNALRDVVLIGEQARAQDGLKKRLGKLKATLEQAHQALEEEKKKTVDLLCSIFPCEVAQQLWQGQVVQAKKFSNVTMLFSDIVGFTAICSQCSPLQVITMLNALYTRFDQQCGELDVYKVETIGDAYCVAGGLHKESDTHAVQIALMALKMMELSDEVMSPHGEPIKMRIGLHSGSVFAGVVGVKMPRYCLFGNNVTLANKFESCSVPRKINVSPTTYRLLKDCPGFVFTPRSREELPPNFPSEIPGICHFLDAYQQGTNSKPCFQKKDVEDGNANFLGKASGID
The assay is described as follows: cGMP GloSensor cell-based assay, 384-well format. The following applies: read-out: sGC_HEK_GloSensor EC50/IC50 Abs (Norm) (nM) Binned (~). From the text: Human embryonic kidney cells (HEK293) cells expressing GloSensor™ 40F cGMP (Part No: CS182801, Promega) were used to evaluate the activity of test compounds. The luminescent biosensors (engineered luciferase) that were incorporated into these cells detect cGMP formed by the compounds stimulating the sGC enzyme and emit luminescence.
cGMP GloSensor cells were maintained in Dulbecco's Modification of Eagle's Medium (DMEM) supplemented with fetal bovine serum (FBS) (10% final) and hygromycine (200 ug/ml). The day before assay, cells were plated in DMEM with 10% FBS in a 50 μL volume at a density of 1.5×10^4 cells/well in a poly-D-lysine coated 384-well flat white-bottom plate (Corning Cat No 35661). Cells were incubated overnight at 37° C. in a humidified chamber with 5% CO2. The next day, medium was removed and cells were replaced with 40 ul/well of GloSensor™, 2 mM (Promega Cat No E1291). Cells were treated for 90 minutes at 25° C. to allow the substrate to equilibrate in the cells. Test compounds and Diethylenetriamine NONOate (DETA-NONOate) was diluted to 3 mM (20×) in serum-free CO2 independent medium and serially diluted at 4× dilutions to create 5× dose curve from which 10 ul was added to the wells (x μM concentration for test compound solution and 10 μM concentration for DETA-NONOate solution; wherein x is one of the following final concentrations). • 30000 nM • 7500 nM • 1875 nM • 468.75 nM • 117.19 nM • 29.29 nM • 7.32 nM • 1.83 nM • 0.46 nM • 0.114 nM • 0.029 nM
For the kinetics studies, luminescense was measured right away for 0.2 sec per well with Envision (Perkin Elmer model No). For endpoint SAR screening, data were collected after 55 min incubation at room temperature.
Data analysis was carried out as indicated above in Example 2A.

As to `OC(CNc1nc(-c2cc(-c3ncco3)n(Cc3ccccc3F)n2)ncc1F)(C(F)(F)F)C(F)(F)F` [Compound 141], the EC50 lay in the range of 100 to 1000 nM.

Take `Fc1cnc(-c2cc(-c3ccon3)n(Cc3cccc(F)c3F)n2)nc1` [Compound 142]: the EC50 was greater than 1000 nM.

On to `Oc1nc(-c2cc(-c3ccon3)n(Cc3ncccc3F)n2)ncc1F` [Compound 143, 5-fluoro-2-(1-((3-fluoropyridin-2-yl)methyl)-5-(isoxazol-3-yl)-1H-pyrazol-3-yl)pyrimidin-4(3H)-one], for which the EC50 was greater than 1000 nM.

`Fc1cnc(-c2cc(-c3ccon3)n(Cc3ncccc3F)n2)nc1` [Compound 144]: the EC50 is greater than 1000 nM.

As for `Nc1ccnc(-c2cc(-c3ccon3)n(Cc3ncccc3F)n2)n1` [Compound 145], the EC50 was greater than 1000 nM.

For `Nc1nc(-c2cc(-c3ccon3)n(Cc3ncccc3F)n2)ncc1F` [Compound 146], the EC50 fell in the range of 100 to 1000 nM.

Regarding `CN(CC(O)c1ccc(O)c(O)c1)c1nc(-c2cc(-c3ccon3)n(Cc3ccccc3F)n2)ncc1F` (stereo not drawn) [Compound 168, 4-(2-((5-fluoro-2-(1-(2-fluorobenzyl)-5-(isoxazol-3-yl)-1H-pyrazol-3-yl)pyrimidin-4-yl)(methyl)amino)-1-hydroxyethyl)benzene-1,2-diol], the EC50 is less than 100 nM.

Take `O[C@@H]1CN(c2nc(-c3cc(-c4ccon4)n(Cc4ccccc4F)n3)ncc2F)C[C@@H]1O` [Compound 169, cis-1-(5-fluoro-2-(1-(2-fluorobenzyl)-5-(isoxazol-3-yl)-1H-pyrazol-3-yl)pyrimidin-4-yl)pyrrolidine-3,4-diol]: the EC50 is less than 100 nM.

In the case of `OCCN1CCN(c2nc(-c3cc(-c4ccon4)n(Cc4ccccc4F)n3)ncc2F)CC1` [Compound 170, 2-(4-(5-fluoro-2-(1-(2-fluorobenzyl)-5-(isoxazol-3-yl)-1H-pyrazol-3-yl)pyrimidin-4-yl)piperazin-1-yl)ethanol], the EC50 was less than 100 nM.

In the case of `COC(=O)C1CCN(c2nc(-c3cc(-c4ccon4)n(Cc4ccccc4F)n3)ncc2F)CC1` [Compound 171, methyl 1-(5-fluoro-2-(1-(2-fluorobenzyl)-5-(isoxazol-3-yl)-1H-pyrazol-3-yl)pyrimidin-4-yl)piperidine-4-carboxylate], the EC50 is less than 100 nM.

In the case of `COC(=O)CCN(C)c1nc(-c2cc(-c3ccon3)n(Cc3ccccc3F)n2)ncc1F` [Compound 172, methyl 3-((5-fluoro-2-(1-(2-fluorobenzyl)-5-(isoxazol-3-yl)-1H-pyrazol-3-yl)pyrimidin-4-yl)(methyl)amino)propanoate], the EC50 was less than 100 nM.

On to `NCC(=O)OC1CCN(c2nc(-c3cc(-c4ccon4)n(Cc4ccccc4F)n3)ncc2F)CC1` [Compound 173, 1-(5-fluoro-2-(1-(2-fluorobenzyl)-5-(isoxazol-3-yl)-1H-pyrazol-3-yl)pyrimidin-4-yl)piperidin-4-yl 2-aminoacetate], for which the EC50 was less than 100 nM.

Regarding `COC(=O)CCCNc1nc(-c2cc(-c3ccon3)n(Cc3ccccc3F)n2)ncc1F` [Compound 174, methyl 4-((5-fluoro-2-(1-(2-fluorobenzyl)-5-(isoxazol-3-yl)-1H-pyrazol-3-yl)pyrimidin-4-yl)amino)butanoate], the EC50 is less than 100 nM.

In the case of `COC(=O)CCCCNc1nc(-c2cc(-c3ccon3)n(Cc3ccccc3F)n2)ncc1F` [Compound 175, methyl 5-((5-fluoro-2-(1-(2-fluorobenzyl)-5-(isoxazol-3-yl)-1H-pyrazol-3-yl)pyrimidin-4-yl)amino)pentanoate], the EC50 is less than 100 nM.

`OCCCCNc1nc(-c2cc(-c3ccon3)n(Cc3ccccc3F)n2)ncc1F` [Compound 176, 4-((5-fluoro-2-(1-(2-fluorobenzyl)-5-(isoxazol-3-yl)-1H-pyrazol-3-yl)pyrimidin-4-yl)amino)butan-1-ol]: the EC50 is less than 100 nM.

Regarding `NCC(=O)OCCCNc1nc(-c2cc(-c3ccon3)n(Cc3ccccc3F)n2)ncc1F` [Compound 177, 3-((5-fluoro-2-(1-(2-fluorobenzyl)-5-(isoxazol-3-yl)-1H-pyrazol-3-yl)pyrimidin-4-yl)amino)propyl 2-aminoacetate], the EC50 was less than 100 nM.

On to `NCC(=O)OCCCCNc1nc(-c2cc(-c3ccon3)n(Cc3ccccc3F)n2)ncc1F` [Compound 178, 4-((5-fluoro-2-(1-(2-fluorobenzyl)-5-(isoxazol-3-yl)-1H-pyrazol-3-yl)pyrimidin-4-yl)amino)butyl 2-aminoacetate], for which the EC50 was less than 100 nM.

Regarding `Cc1ccc(Cn2nc(-c3ncc(F)c(O)n3)cc2-c2ccon2)cc1` [Compound 185], the EC50 is less than 100 nM.

For the compound `Cn1cc(Cn2nc(-c3ncc(F)c(O)n3)cc2-c2ccon2)cn1` [Compound 186], the EC50 is greater than 1000 nM.

For the compound `Cc1ccc(Cn2nc(-c3ncc(F)c(O)n3)cc2-c2ccon2)cc1F` [Compound 188], the EC50 was less than 100 nM.

For `Oc1nc(-c2cc(-c3ccon3)n(Cc3cccnc3)n2)ncc1F` [Compound 189], the EC50 was greater than 1000 nM.

Take `Cc1cc(Cn2nc(-c3ncc(F)c(O)n3)cc2-c2ccon2)on1` [Compound 190]: the EC50 lay within 100 to 1000 nM.

On to `CCOC(=O)C(C)(C)c1nnc(-c2cc(-c3ccon3)n(Cc3ccccc3F)n2)nc1O` [Compound 191], for which the EC50 lay in the range of 100 to 1000 nM.

With `CCOC(=O)C(C)(C)c1nc(-c2cc(-c3ccon3)n(Cc3ccccc3F)n2)nnc1O` [Compound 192], the EC50 is greater than 1000 nM.

With `Oc1nc(-c2cc(-c3ccon3)n(Cc3cccc(F)c3)n2)ncc1F` [Compound 197], the EC50 was 100 to 1000 nM.

`CC(=O)c1cc(-c2nncc(N)n2)nn1Cc1ccccc1F` [Compound 198]: the EC50 was greater than 1000 nM.

As to `CC(=O)c1cc(-c2nncc(O)n2)nn1Cc1ccccc1F` [Compound 201], the EC50 is greater than 1000 nM.

Consider `CC(=O)c1cc(-c2ncc(F)c(NCC(F)(F)F)n2)nn1Cc1ccccc1F` [Compound 204], for which the EC50 fell in the range of 100 to 1000 nM.

Regarding `Cc1ccc(Cn2nc(-c3ncc(F)c(O)n3)cc2-c2ccon2)c(F)c1` [Compound 208], the EC50 was 100 to 1000 nM.

With `CCOC(=O)C(C)(C)c1nnc(-c2cc(-c3ccon3)n(Cc3ccccc3F)n2)nc1N` [Compound 209], the EC50 is greater than 1000 nM.

`Oc1nc(-c2cc(-c3ccon3)n(Cc3ccno3)n2)ncc1F` [Compound 211]: the EC50 is greater than 1000 nM.

As to `Cn1nccc1Cn1nc(-c2ncc(F)c(O)n2)cc1-c1ccon1` [Compound 212], the EC50 was greater than 1000 nM.

Turning to `Oc1nc(-c2cc(-c3ccon3)n(Cc3ccc(F)cc3)n2)ncc1F` [Compound 213], the EC50 lay within 100 to 1000 nM.

Take `Oc1nc(-c2cc(-c3ccon3)n(CC(F)(F)F)n2)ncc1F` [Compound 214]: the EC50 is greater than 1000 nM.

In the case of `Oc1nc(-c2cc(-c3ccon3)n(Cc3ncccn3)n2)ncc1F` [Compound 215], the EC50 is greater than 1000 nM.

For the compound `Oc1nc(-c2cc(-c3ccon3)n(Cc3cncnc3)n2)ncc1F` [Compound 216], the EC50 is greater than 1000 nM.
